# Experiments:
# FGFR1 = biological target: T1, FGFR1 (Homo sapiens, UniProt P11362); assay: Kinase binding assay (kinase-tagged T7 phage, qPCR), Kd; settings: read-out: FGFR1 (Kd nM)
# T1 construct: made in house; host or cells: E. coli derived from BL21, infected with T7 phage
# FGFR2 = biological target: T2, FGFR2 (Homo sapiens, UniProt P21802); assay: as above; settings: read-out: FGFR2 (Kd nM)
# T2 construct: made in house; host or cells: E. coli derived from BL21, infected with T7 phage
# FGFR4 = biological target: T3, FGFR4 (Homo sapiens, UniProt P22455); assay: as above; settings: read-out: FGFR4 (Kd nM)
# T3 construct: made in house; host or cells: E. coli derived from BL21, infected with T7 phage
# FGFR3 = biological target: T4, FGFR3 (Homo sapiens, UniProt P22607); assay: as above; settings: read-out: FGFR3 (Kd nM)
# T4 construct: made in house; host or cells: E. coli derived from BL21, infected with T7 phage
# FGFR3-BAIAP2L1 Ba/F3 = biological target: T5, FGFR3-BAIAP2L1 Ba/F3 (Homo sapiens, UniProt P22607); assay: Ba/F3 cell viability assay (CellTiter-Glo 2.0); assay type: cell-based; settings: Ba/F3 FGFR3-BAIAP2L1 cells, 48 hours
# T5 construct: host or cells: Ba/F3; the other entry of the earlier key: BAIAP2L1 (Q9UHR4, BAR/IMD domain-containing adapter protein 2-like 1)
# Description: (§1) Experimental Purpose: Recombinant kinase fusions are transduced into parental Ba/F3, which becomes dependent upon this constitutive kinase activity for IL3-independent survival. Inhibition of kinase activity leads to cell death, which is monitored using CellTiter-Glo® 2.0 (Promega) which measures intracellular ATP concentration that in turn serves as a marker for viability. BCR-FGFR4 Ba/F3, BCR-FGFR1 Ba/F3 and FGFR3-BAIAP2L1 Ba/F3 were obtained from Advanced Cellular Dynamics (Seattle, WA)
# (§2) Cell Viability Assay Procedure: Cell Titer-Glo® 2.0 Luminescent cell viability assay reagent was purchased from Promega (Madison, WI). BCR-FGFR4 Ba/F3, BCR-FGFR1 Ba/F3 and FGFR3-BAIAP2L1 Ba/F3 cells were cultured in RPMI1640 media supplemented with 10% fetal bovine serum. Cultures were maintained at 37° C. in a humidified atmosphere of 5% CO2 and 95% air.
# (§3) Cells were plated in 96-well clear bottom/white plates (Corning #3903) at 10,000 cells/well in 100 μl of media, incubated overnight. The next day, test compound DMSO stock solutions were made at 10 mM and 2 μM final concentration. Compounds were then added to cells in a 9-dose, 10-fold dilution series starting at 30 μM with an HP 300e Digital Dispenser (each dose was applied in triplicate). DMSO was backfilled to each well up to 301 nL total volume of test compound+DMSO, and a total of 301 nL DMSO was added to a control/no test compound well in triplicate. The cells in cell culture plates were incubated with the compounds at 37° C. and 5% CO2 for 48 hours. Then 50 μl of Cell Titer Glo 2.0 reagent was added to each well of the cell culture plates. The contents were covered from light and mixed on an orbital shaker at room temperature for 10 min. Luminescence was recorded by a Synergy H1 Microplate Reader (Biotek, Winooski, VT). Cells were assessed as a percentage of DMSO only treated control cells. Curves were plotted and IC50 values were calculated using the GraphPad Prism 8 program based on a sigmoidal dose-response equation (4 parameter).
# BCR-FGFR1 Ba/F3 = biological target: T6, BCR-FGFR1 Ba/F3 (Homo sapiens, UniProt P11362); assay: Ba/F3 cell viability assay (CellTiter-Glo 2.0); assay type: cell-based; settings: Ba/F3 BCR-FGFR1 cells, 48 hours
# T6 construct: host or cells: Ba/F3; the other entry of the earlier key: BCR (P11274, Breakpoint cluster region protein)
# Description: as §1, §2, §3
# T3 sequence (P22455 22-802): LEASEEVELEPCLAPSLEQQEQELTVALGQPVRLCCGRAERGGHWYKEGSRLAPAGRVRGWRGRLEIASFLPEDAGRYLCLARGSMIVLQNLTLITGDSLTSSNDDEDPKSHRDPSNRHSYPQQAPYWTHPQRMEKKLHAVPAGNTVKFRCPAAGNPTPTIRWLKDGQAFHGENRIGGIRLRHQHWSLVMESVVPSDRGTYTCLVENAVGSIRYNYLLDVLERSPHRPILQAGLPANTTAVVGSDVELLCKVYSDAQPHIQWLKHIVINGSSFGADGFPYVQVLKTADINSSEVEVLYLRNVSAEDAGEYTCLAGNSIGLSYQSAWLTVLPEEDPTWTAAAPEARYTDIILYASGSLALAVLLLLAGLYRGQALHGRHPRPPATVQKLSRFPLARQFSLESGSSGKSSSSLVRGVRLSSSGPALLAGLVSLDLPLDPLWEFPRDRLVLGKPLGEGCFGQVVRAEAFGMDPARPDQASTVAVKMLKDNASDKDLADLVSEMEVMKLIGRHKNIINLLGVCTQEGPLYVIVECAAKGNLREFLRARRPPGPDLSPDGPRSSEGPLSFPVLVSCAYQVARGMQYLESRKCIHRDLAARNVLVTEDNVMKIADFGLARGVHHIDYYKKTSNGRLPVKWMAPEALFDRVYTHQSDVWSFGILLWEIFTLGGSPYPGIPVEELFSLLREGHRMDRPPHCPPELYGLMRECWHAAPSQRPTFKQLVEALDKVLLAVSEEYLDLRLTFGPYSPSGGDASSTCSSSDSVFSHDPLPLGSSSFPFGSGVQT
# T2 sequence (P21802 22-821): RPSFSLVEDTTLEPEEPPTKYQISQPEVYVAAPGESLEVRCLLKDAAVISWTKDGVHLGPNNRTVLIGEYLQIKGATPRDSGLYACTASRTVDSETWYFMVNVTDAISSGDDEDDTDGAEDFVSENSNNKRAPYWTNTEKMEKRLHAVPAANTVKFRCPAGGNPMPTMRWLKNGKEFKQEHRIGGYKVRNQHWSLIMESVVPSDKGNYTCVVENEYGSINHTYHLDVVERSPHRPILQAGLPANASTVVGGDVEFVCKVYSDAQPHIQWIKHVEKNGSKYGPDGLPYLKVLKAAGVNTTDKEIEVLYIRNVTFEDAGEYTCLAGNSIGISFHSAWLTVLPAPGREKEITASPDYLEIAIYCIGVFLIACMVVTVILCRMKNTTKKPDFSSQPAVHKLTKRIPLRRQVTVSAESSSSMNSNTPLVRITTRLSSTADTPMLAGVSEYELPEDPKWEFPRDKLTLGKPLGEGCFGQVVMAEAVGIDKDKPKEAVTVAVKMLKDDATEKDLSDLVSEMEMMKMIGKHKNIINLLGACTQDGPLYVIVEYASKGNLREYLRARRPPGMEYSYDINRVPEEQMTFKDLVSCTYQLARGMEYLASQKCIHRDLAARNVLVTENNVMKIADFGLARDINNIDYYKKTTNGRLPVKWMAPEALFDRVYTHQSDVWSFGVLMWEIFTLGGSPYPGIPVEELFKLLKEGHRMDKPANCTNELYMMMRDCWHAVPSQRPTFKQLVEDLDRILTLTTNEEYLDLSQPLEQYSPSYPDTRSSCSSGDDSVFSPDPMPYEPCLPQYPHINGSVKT
# T5 sequence (P22607 397-758 limits assumed): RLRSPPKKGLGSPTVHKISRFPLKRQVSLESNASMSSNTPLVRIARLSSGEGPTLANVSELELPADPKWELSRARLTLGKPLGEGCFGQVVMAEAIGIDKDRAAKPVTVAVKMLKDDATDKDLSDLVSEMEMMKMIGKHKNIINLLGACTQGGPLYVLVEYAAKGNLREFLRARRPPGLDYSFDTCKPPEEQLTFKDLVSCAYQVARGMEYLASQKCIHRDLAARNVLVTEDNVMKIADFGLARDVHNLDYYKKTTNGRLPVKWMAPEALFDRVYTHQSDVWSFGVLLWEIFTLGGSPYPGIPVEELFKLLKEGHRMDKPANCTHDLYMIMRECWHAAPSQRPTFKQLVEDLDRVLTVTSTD
# T6 sequence (P11362 478-767 limits assumed): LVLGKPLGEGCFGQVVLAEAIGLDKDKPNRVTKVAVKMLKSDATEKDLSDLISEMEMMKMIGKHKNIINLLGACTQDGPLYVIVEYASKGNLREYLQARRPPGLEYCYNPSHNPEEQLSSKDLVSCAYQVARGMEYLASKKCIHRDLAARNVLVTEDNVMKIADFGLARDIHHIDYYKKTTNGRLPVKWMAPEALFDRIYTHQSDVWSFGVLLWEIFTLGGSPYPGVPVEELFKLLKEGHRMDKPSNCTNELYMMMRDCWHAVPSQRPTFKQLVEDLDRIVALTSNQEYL
# T4 sequence (P22607 23-806): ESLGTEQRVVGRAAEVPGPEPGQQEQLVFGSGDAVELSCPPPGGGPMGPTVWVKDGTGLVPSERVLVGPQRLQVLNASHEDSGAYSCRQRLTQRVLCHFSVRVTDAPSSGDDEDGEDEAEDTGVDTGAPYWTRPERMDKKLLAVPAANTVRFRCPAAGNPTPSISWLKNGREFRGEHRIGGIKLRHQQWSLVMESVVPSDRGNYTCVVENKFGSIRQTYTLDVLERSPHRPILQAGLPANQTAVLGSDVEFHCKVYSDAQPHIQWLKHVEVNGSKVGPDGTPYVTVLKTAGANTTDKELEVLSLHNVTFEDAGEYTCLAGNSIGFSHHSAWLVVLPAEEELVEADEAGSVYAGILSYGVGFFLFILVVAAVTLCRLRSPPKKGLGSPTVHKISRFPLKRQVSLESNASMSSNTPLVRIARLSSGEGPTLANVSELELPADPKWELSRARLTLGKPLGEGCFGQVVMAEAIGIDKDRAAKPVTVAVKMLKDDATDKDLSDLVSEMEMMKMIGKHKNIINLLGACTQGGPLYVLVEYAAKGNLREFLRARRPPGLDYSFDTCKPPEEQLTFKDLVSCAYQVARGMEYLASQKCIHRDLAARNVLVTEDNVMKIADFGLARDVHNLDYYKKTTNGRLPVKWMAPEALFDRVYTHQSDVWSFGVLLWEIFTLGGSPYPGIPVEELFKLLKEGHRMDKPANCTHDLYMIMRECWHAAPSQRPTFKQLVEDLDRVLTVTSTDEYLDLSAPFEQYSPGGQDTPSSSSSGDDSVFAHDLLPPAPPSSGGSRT
# T1 sequence (P11362 22-822): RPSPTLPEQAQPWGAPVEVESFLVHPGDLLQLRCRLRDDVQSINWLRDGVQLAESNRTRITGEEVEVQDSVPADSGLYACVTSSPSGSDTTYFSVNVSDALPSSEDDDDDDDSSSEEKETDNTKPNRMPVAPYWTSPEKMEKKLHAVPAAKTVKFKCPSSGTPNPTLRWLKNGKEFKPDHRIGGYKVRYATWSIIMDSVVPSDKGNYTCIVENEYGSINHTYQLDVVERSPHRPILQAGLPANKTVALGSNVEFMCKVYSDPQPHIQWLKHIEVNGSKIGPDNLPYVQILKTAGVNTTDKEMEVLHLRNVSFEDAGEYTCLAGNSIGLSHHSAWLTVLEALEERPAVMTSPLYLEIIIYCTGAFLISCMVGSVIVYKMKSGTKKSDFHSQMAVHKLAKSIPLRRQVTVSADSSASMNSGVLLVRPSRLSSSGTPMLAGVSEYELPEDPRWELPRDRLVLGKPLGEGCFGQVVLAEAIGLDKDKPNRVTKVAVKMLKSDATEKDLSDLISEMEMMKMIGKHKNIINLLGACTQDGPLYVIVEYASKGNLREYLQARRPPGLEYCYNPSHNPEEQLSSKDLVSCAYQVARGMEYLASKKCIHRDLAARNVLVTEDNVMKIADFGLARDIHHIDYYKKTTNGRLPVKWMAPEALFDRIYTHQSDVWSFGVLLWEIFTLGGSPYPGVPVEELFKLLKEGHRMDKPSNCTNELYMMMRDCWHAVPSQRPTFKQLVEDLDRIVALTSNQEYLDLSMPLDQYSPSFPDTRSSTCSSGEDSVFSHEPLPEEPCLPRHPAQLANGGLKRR
Structure (SMILES),Kd (FGFR1),Kd (FGFR2),Kd (FGFR4),Kd (FGFR3),IC50 (FGFR3-BAIAP2L1 Ba/F3),IC50 (BCR-FGFR1 Ba/F3)
"C[C@@H](Oc1ccc2[nH]nc(-c3ccc4c(c3)COC3(CCN(CC(F)(F)F)CC3)O4)c2c1)c1c(Cl)cncc1Cl [Example 169, 6-[5-[(1R)-1-(3,5-dichloro-4-pyridyl)ethoxy]-1H-indazol-3-yl]-1′-(2,2,2-trifluoroethyl)spiro[4H-1,3-benzodioxine-2,4′-piperidine]]",100 to 250 nM,100 to 250 nM,0.1 to 100 nM,0.1 to 100 nM,0.1 to 100 nM,> 1000 nM
"C[C@@H](Oc1ccc2[nH]nc(-c3cnc4c(c3)N(S(C)(=O)=O)CCO4)c2c1)c1c(Cl)cncc1Cl [Example 137, 7-[5-[(1R)-1-(3,5-dichloro-4-pyridyl)ethoxy]-1H-indazol-3-yl]-1-methylsulfonyl-2,3-dihydropyrido[2,3-b][1,4]oxazine]",250 to 1000 nM,100 to 250 nM,0.1 to 100 nM,0.1 to 100 nM,0.1 to 100 nM,250 to 1000 nM
"Cc1cc(-c2n[nH]c3ccc(O[C@H](C)c4c(Cl)cncc4Cl)cc23)cnc1NC1CCOCC1 [Example 151, (R)-5-(5-(1-(3,5-Dichloropyridin-4-yl)ethoxy)-1H-indazol-3-yl)-3-methyl-N-(tetrahydro-2H-pyran-4-yl)pyridin-2-amine]",100 to 250 nM,100 to 250 nM,0.1 to 100 nM,0.1 to 100 nM,0.1 to 100 nM,250 to 1000 nM
"CCN1CCC2(CCc3cc(-c4n[nH]c5ccc(O[C@H](C)c6c(C)cnnc6C)cc45)ccc3O2)CC1 [Example 111, (R)-6-(5-(1-(3,5-dimethylpyridazin-4-yl)ethoxy)-1H-indazol-3-yl)-1′-ethylspiro[chroman-2,4′-piperidine]]",0.1 to 100 nM,0.1 to 100 nM,0.1 to 100 nM,0.1 to 100 nM,0.1 to 100 nM,0.1 to 100 nM
"C[C@@H](Oc1ccc2[nH]nc(-c3ccc4c(c3)COC3(CCN(S(C)(=O)=O)CC3)O4)c2c1)c1c(Cl)cncc1Cl [Example 165, 6-[5-[(1R)-1-(3,5-dichloro-4-pyridyl)ethoxy]-1H-indazol-3-yl]-1′-methylsulfonyl-spiro[4H-1,3-benzodioxine-2,4′-piperidine]]",0.1 to 100 nM,0.1 to 100 nM,0.1 to 100 nM,0.1 to 100 nM,0.1 to 100 nM,250 to 1000 nM
"Cc1ncc(Cl)c([C@@H](C)Oc2ccc3[nH]nc(-c4ccc(O[C@H]5CCOC5)nc4)c3c2)c1Cl [Example 150, 5-[(1R)-1-(3,5-dichloro-2-methyl-4-pyridyl)ethoxy]-3-[6-[(3S)-tetrahydrofuran-3-yl]oxy-3-pyridyl]-1H-indazole]",0.1 to 100 nM,0.1 to 100 nM,0.1 to 100 nM,0.1 to 100 nM,0.1 to 100 nM,250 to 1000 nM
"CCN1CCC2(CC1)CC(=O)c1cc(-c3n[nH]c4ccc(O[C@H](C)c5c(Cl)cncc5Cl)cc34)ccc1O2 [Example 95, (R)-6-(5-(1-(3,5-Dichloropyridin-4-yl)ethoxy)-1H-indazol-3-yl)-1′-ethylspiro[chromane-2,4′-piperidin]-4-one]",0.1 to 100 nM,0.1 to 100 nM,0.1 to 100 nM,0.1 to 100 nM,0.1 to 100 nM,100 to 250 nM
"Cc1cnnc(C)c1[C@@H](C)Oc1ccc2[nH]nc(-c3ccc4c(c3)COC3(CCN(C(C)C)CC3)O4)c2c1 [Example 112, (R)-6-(5-(1-(3,5-dimethylpyridazin-4-yl)ethoxy)-1H-indazol-3-yl)-1′-isopropyl-4H-spiro[benzo[d][1,3]dioxine-2,4′-piperidine]]",0.1 to 100 nM,0.1 to 100 nM,0.1 to 100 nM,0.1 to 100 nM,0.1 to 100 nM,0.1 to 100 nM
"CCN1CCC2(CC1)OCc1cc(-c3n[nH]c4ccc(O[C@H](C)c5c(Cl)cncc5Cl)cc34)ccc1O2 [Example 96, (R)-6-(5-(1-(3,5-Dichloropyridin-4-yl)ethoxy)-1H-indazol-3-yl)-1′-ethyl-4H-spiro[benzo[d][1,3]dioxine-2,4′-piperidine]]",0.1 to 100 nM,0.1 to 100 nM,0.1 to 100 nM,0.1 to 100 nM,0.1 to 100 nM,100 to 250 nM
"Cc1ncc(Cl)c([C@@H](C)Oc2ccc3[nH]nc(-c4ccc(O[C@@H]5CCOC5)nc4)c3c2)c1Cl [Example 147, 5-((R)-1-(3,5-Dichloro-2-methylpyridin-4-yl)ethoxy)-3-(6-(((R)-tetrahydrofuran-3-yl)oxy)pyridin-3-yl)-1H-indazole]",0.1 to 100 nM,0.1 to 100 nM,0.1 to 100 nM,0.1 to 100 nM,100 to 250 nM,> 1000 nM
"Cc1cc(-c2n[nH]c3ccc(O[C@H](C)c4c(Cl)cncc4Cl)cc23)cnc1N[C@@H]1CCOC1 [Example 158, 5-(5-((R)-1-(3,5-dichloropyridin-4-yl)ethoxy)-1H-indazol-3-yl)-3-methyl-N-((R)-tetrahydrofuran-3-yl)pyridin-2-amine]",0.1 to 100 nM,100 to 250 nM,0.1 to 100 nM,0.1 to 100 nM,0.1 to 100 nM,250 to 1000 nM

# Second part, led by results:
Kd (FGFR1),Kd (FGFR2),Kd (FGFR4),Kd (FGFR3),Structure (SMILES),IC50 (FGFR3-BAIAP2L1 Ba/F3),IC50 (BCR-FGFR1 Ba/F3)
0.1 to 100 nM,0.1 to 100 nM,0.1 to 100 nM,0.1 to 100 nM,"C[C@@H](Oc1ccc2[nH]nc(-c3ccc(NC4CC5(C4)CN(S(C)(=O)=O)C5)nc3)c2c1)c1c(Cl)cncc1Cl [Example 159, (R)-N-(5-(5-(1-(3,5-dichloropyridin-4-yl)ethoxy)-1H-indazol-3-yl)pyridin-2-yl)-2-(methylsulfonyl)-2-azaspiro[3.3]heptan-6-amine]",0.1 to 100 nM,0.1 to 100 nM
0.1 to 100 nM,0.1 to 100 nM,0.1 to 100 nM,0.1 to 100 nM,"C[C@@H](Oc1ccc2[nH]nc(-c3ccc4c(c3)C(=O)CC3(CCNCC3)O4)c2c1)c1c(Cl)cncc1Cl [Example 92, (R)-6-(5-(1-(3,5-Dichloropyridin-4-yl)ethoxy)-1H-indazol-3-yl)spiro[chromane-2,4′-piperidin]-4-one]",0.1 to 100 nM,250 to 1000 nM
0.1 to 100 nM,0.1 to 100 nM,0.1 to 100 nM,0.1 to 100 nM,"CNC(=O)c1ccc(-c2n[nH]c3ccc(O[C@H](C)c4c(Cl)cncc4Cl)cc23)cn1 [Example 9, (R)-5-(5-(1-(3,5-Dichloropyridin-4-yl)ethoxy)-1H-indazol-3-yl)-N-methylpicolinamide]",0.1 to 100 nM,100 to 250 nM
0.1 to 100 nM,0.1 to 100 nM,0.1 to 100 nM,0.1 to 100 nM,"C[C@@H](Oc1ccc2[nH]nc(-c3ccc(NC(=O)N4CCOCC4)nc3)c2c1)c1c(Cl)cncc1Cl [Example 16, N-[5-[5-[(1R)-1-(3,5-dichloro-4-pyridyl)ethoxy]-1H-indazol-3-yl]-2-pyridyl]morpholine-4-carboxamide]",0.1 to 100 nM,0.1 to 100 nM
0.1 to 100 nM,0.1 to 100 nM,0.1 to 100 nM,0.1 to 100 nM,"C[C@@H](Oc1ccc2[nH]nc(-c3ccc4c(c3)COC3(CCN(C5CCC5)CC3)O4)c2c1)c1c(Cl)cncc1Cl [Example 157, (R)-1′-Cyclobutyl-6-(5-(1-(3,5-dichloropyridin-4-yl)ethoxy)-1H-indazol-3-yl)-4H-spiro[benzo[d][1,3]dioxine-2,4′-piperidine]]",0.1 to 100 nM,250 to 1000 nM
0.1 to 100 nM,0.1 to 100 nM,0.1 to 100 nM,0.1 to 100 nM,Cc1ncc(Cl)c([C@@H](C)Oc2ccc3[nH]nc(-c4ccc(NC5CCOCC5)nc4)c3c2)c1Cl [Example 156],0.1 to 100 nM,100 to 250 nM
